In patent EP0615756B1 (priority 1993, dated 1994):
Where a name gives a salt, the structure may show the parent alone. Read-outs that look alike come from different tables or passages of the source.

How the values were obtained:
[1] = cited from earlier work
[2] = system: New Zealand white rabbits; assay: Paw pressure test; format: in vivo; details: Figure 20
[3] = Plasma concentration after intramuscular injection (HPLC) in the paw pressure study; details: for half-life: rabbit, plasma, im
[4] = Percutaneous transport study in modified Franz diffusion cells; details: 37 °C
Sprague-Dawley rats = assay: Rat cold ethanol tail-flick test; format: in vivo; details: for % Analgesic effect 10% / % Analgesic effect 20% / % Analgesic effect 50%: 25 micromole per kg, intramuscularly
[5] = Figure 15; between 17 and 28 hours, p<0.05
[6] = Anesthesiology, vol.74, 53, 1991
[7] = in sesame oil, duration in days

For `Oc1ccc2c(c1)[C@@]13CCCC[C@@]1(O)[C@@H](C2)N(CC1CCC1)CC3` [butorphanol], the “dose needed to elicit the same analgesic effect” value (shortened to “dose needed”) [1, 6] is listed as 2 mg.
With `CCCCCCCCCC(=O)Oc1ccc2c3c1O[C@H]1[C@@H](O)CC[C@@]4(O)[C@@H](C2)N(CC2CCC2)CC[C@]314` [nalbuphine decanoate] the “analgesic effect for intramuscular injection (duration)” value ([2]; 0.) was 18 h, the half-life ([3]; […]) was 26 h and the “increase of duration compared with nalbuphine hydrochloride” value ([3]; rabbits, Figure 19) was 30 times. The cumulative amount ([4]; under 24 hours, 5% nalbuphine decanoate in a jel of 2% CMC Na) was 1.04±0.30 µ g/cm^2, the cumulative amount ([4]; under 24 hours, jell containing 10% terpineol (5% nalbuphine decanoate, 2% CMC Na)) was 3.31±0.45 µg/cm^2 and the cumulative amount ([4]; under 48 hours, 5% nalbuphine decanoate in a jel of 2% CMC Na) was 1.67±0.38 µg/cm^2. For the same compound, the cumulative amount ([4]; under 48 hours, jell containing 10% terpineol (5% nalbuphine decanoate, 2% CMC Na)) was 5.78±0.81 µ g/cm^2, the cumulative amount ([4]; under 72 hours, 5% nalbuphine decanoate in a jel of 2% CMC Na) was 3.17±0.35 µ g/cm^2 and the cumulative amount ([4]; under 72 hours, jell containing 10% terpineol (5% nalbuphine decanoate, 2% CMC Na)) was 9.87±1.44 µg/cm^2. The “% Analgesic effect 10%” value (Sprague-Dawley rats; [7]) was 8.2 D, the “% Analgesic effect 20%” value (Sprague-Dawley rats; [7]) was 7.5 D and the “% Analgesic effect 50%” value (Sprague-Dawley rats; [7]) was 6.7 D. The 10% analgesic effect (Sprague-Dawley rats; table 2, longest duration) was 197 h and the 50% analgesic effect (Sprague-Dawley rats; table 2, longest duration) was 161 h.
For `Oc1ccc2c3c1O[C@H]1[C@@H](O)CC[C@@]4(O)[C@@H](C2)N(CC2CCC2)CC[C@]314` [nalbuphine hydrochloride, reference compound], the “analgesic effect for intramuscular injection (duration)” value ([2]; 10 mg/kg) was 0.75 h, the half-life [3] was 0.85 h and the “% Analgesic effect 10%” value (Sprague-Dawley rats; duration in hours) was 5.0 H. For the same compound, the “% Analgesic effect 20%” value (Sprague-Dawley rats; duration in hours) was 4.4 H, the “% Analgesic effect 50%” value (Sprague-Dawley rats; duration in hours) was 2.5 H and the 10% analgesic effect (Sprague-Dawley rats; rats, intramuscular injection) was 2.4 h. The 20% analgesic effect (Sprague-Dawley rats; rats, intramuscular injection) was 2.1 h, the “50% analgesic effect” value (Sprague-Dawley rats; rats, intramuscular injection, 25 micromole/kg) was 1.1 h and the 10% analgesic effect (Sprague-Dawley rats; table 2) was 12 h. The 50% analgesic effect (Sprague-Dawley rats; table 2) was 2.5 h.
For `CCC(=O)Oc1ccc2c3c1O[C@H]1[C@@H](O)CC[C@@]4(O)[C@@H](C2)N(CC2CCC2)CC[C@]314` [nalbuphine propionate], the “% Analgesic effect 10%” value (Sprague-Dawley rats; duration in hours) was 12 H, the “% Analgesic effect 20%” value (Sprague-Dawley rats; duration in hours) was 11 H and the “% Analgesic effect 50%” value (Sprague-Dawley rats; duration in hours) was 10 H. The 50% analgesic effect (Sprague-Dawley rats; table 2) was 10 h.
With `CC(C)(C)C(=O)Oc1ccc2c3c1O[C@H]1[C@@H](O)CC[C@@]4(O)[C@@H](C2)N(CC2CCC2)CC[C@]314` [nalbuphine pivalate] the “% Analgesic effect 10%” value (Sprague-Dawley rats; [7]) was 3.8 D, the “% Analgesic effect 20%” value (Sprague-Dawley rats; [7]) was 3.6 D and the “% Analgesic effect 50%” value (Sprague-Dawley rats; [7]) was 3.2 D.
In the case of `CO[C@]12CC[C@@]3(C[C@@H]1[C@](C)(O)C(C)(C)C)[C@H]1Cc4ccc(O)c5c4[C@@]3(CCN1CC1CC1)[C@H]2O5` [buprenorphine], the “dose needed” value [1, 6] is given as 0.3 mg.
With `O=C(Oc1ccc2c3c1O[C@H]1[C@@H](O)CC[C@@]4(O)[C@@H](C2)N(CC2CCC2)CC[C@]314)c1ccccc1` [nalbuphine benzoate] the “% Analgesic effect 10%” value (Sprague-Dawley rats; [7]) was 4.0 D, the “% Analgesic effect 20%” value (Sprague-Dawley rats; [7]) was 4.0 D and the “% Analgesic effect 50%” value (Sprague-Dawley rats; [7]) was 3.5 D.
For `CN1CC[C@]23c4c5ccc(O)c4O[C@H]2[C@@H](O)C=C[C@H]3[C@H]1C5` [morphine], the “dose needed” value ([1]; in vivo) is given as 10 mg.
In the case of `Oc1ccc2c3c1O[C@H]1[C@@H](O)CC[C@@]4(O)[C@@H](C2)N(CC2CCC2)CC[C@]314` [nalbuphine], the “amount of released nalbuphine free base” value [5] is reported as “less in preparations with sesame oil than with peanut oil ester and the control”.
In the case of `CCCCCCC(=O)Oc1ccc2c3c1O[C@H]1[C@@H](O)CC[C@@]4(O)[C@@H](C2)N(CC2CCC2)CC[C@]314` [nalbuphine enanthate], the “% Analgesic effect 10%” value (Sprague-Dawley rats; [7]) is reported as 3.6 D, the “% Analgesic effect 20%” value (Sprague-Dawley rats; [7]) is reported as 3.4 D and the “% Analgesic effect 50%” value (Sprague-Dawley rats; [7]) is reported as 3.0 D.
